Data from US11981658B2, “Substituted aminopyridine compounds as EGFR inhibitors” (YUHAN CORPORATION, priority 2021, dated 2024).
Read-outs that look alike come from different tables or passages of the source.

Columns and labels:
EGFR Del19/T790M/C797S = EGFR Del19/T790M/C797S (Homo sapiens, UniProt P00533, C797S/DEL746-750/T790M); experiment: Biochemical EGFR kinase inhibition assay (Lance Ultra TR-FRET), triple mutant del19/T790M/C797S
Outline: (§1)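 In this biochemical assay, phosphorylation after a one-hour room-temperature reaction was detected with europium-labelled anti-phosphopeptide antibody at 2 nM final concentration.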

EGFR L858R/C797S = EGFR L858R/C797S (Homo sapiens, UniProt P00533, C797S/L858R); experiment: Biochemical EGFR kinase inhibition assay (Lance Ultra TR-FRET), double mutant L858R/C797S
Chain of EGFR L858R/C797S (P00533 25-1210 C797S/L858R): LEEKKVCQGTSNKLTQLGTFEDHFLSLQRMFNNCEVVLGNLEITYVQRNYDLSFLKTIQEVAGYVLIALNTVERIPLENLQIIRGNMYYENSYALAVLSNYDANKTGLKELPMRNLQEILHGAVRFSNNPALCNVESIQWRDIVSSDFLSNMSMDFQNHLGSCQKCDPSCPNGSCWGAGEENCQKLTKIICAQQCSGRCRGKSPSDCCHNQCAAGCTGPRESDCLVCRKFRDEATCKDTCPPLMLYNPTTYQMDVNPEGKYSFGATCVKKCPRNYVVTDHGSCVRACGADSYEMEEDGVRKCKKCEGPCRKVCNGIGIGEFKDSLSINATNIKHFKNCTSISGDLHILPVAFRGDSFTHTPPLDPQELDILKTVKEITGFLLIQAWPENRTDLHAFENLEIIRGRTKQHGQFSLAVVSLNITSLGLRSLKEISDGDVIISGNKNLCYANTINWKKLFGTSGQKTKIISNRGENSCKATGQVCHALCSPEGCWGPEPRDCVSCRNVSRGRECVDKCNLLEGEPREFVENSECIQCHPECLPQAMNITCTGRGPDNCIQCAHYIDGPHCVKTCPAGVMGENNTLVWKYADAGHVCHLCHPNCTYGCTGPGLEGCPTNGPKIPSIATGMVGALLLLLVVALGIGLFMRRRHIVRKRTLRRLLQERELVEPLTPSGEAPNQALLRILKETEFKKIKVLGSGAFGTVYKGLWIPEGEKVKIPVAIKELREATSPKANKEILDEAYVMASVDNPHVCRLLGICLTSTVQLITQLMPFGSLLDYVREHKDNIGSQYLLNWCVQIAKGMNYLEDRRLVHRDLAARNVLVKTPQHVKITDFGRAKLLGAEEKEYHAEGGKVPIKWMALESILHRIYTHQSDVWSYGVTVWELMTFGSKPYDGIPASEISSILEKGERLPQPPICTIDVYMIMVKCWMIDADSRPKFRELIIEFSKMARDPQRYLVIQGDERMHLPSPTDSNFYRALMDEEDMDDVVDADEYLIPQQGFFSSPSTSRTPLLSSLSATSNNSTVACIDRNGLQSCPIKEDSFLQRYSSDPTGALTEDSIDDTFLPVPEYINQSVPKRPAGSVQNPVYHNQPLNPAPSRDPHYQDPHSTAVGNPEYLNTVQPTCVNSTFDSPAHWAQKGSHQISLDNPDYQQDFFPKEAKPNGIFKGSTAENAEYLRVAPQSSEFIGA
Outline: as §1

EGFR L858R/T790M/C797S = EGFR L858R/T790M/C797S (Homo sapiens, UniProt P00533, C797S/L858R/T790M); experiment: Biochemical EGFR kinase inhibition assay (Lance Ultra TR-FRET), triple mutant L858R/T790M/C797S
Chain of EGFR L858R/T790M/C797S (P00533 25-1210 T790M/C797S/L858R): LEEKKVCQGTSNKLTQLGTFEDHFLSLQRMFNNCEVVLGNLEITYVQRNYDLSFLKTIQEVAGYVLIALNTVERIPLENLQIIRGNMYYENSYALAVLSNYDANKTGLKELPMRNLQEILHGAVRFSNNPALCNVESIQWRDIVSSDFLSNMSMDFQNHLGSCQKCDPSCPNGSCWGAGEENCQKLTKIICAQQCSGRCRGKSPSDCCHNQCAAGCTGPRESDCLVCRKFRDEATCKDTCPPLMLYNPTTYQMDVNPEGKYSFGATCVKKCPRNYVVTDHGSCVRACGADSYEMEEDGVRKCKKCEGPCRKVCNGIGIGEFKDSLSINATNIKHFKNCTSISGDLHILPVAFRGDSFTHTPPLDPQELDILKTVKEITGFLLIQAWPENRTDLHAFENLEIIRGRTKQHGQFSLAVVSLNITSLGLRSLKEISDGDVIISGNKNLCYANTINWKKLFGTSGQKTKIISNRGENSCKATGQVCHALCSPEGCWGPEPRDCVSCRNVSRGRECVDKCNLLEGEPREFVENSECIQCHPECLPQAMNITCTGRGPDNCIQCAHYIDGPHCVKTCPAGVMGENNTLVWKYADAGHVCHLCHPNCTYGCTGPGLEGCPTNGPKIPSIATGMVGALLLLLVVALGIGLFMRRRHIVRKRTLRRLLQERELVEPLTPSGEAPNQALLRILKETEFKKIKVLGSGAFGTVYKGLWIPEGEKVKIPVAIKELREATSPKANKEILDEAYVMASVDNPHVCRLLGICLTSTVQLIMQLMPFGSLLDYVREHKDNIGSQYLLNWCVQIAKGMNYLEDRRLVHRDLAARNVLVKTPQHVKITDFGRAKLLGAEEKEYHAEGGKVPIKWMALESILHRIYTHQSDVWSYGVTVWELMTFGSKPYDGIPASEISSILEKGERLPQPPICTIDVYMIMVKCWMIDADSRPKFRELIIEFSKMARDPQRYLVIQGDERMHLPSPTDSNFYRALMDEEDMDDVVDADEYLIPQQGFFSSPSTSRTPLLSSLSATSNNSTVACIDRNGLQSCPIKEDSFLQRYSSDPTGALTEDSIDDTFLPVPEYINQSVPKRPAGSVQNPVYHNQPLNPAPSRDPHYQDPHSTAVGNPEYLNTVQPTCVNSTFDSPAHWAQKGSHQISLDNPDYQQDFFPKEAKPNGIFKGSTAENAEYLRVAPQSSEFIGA
Outline: as §1

EGFR wildtype (WT) = EGFR wildtype (WT) (Homo sapiens, UniProt P00533); experiment: Biochemical EGFR kinase inhibition assay (Lance Ultra TR-FRET), wildtype
Chain of EGFR wildtype (WT) (P00533 25-1210): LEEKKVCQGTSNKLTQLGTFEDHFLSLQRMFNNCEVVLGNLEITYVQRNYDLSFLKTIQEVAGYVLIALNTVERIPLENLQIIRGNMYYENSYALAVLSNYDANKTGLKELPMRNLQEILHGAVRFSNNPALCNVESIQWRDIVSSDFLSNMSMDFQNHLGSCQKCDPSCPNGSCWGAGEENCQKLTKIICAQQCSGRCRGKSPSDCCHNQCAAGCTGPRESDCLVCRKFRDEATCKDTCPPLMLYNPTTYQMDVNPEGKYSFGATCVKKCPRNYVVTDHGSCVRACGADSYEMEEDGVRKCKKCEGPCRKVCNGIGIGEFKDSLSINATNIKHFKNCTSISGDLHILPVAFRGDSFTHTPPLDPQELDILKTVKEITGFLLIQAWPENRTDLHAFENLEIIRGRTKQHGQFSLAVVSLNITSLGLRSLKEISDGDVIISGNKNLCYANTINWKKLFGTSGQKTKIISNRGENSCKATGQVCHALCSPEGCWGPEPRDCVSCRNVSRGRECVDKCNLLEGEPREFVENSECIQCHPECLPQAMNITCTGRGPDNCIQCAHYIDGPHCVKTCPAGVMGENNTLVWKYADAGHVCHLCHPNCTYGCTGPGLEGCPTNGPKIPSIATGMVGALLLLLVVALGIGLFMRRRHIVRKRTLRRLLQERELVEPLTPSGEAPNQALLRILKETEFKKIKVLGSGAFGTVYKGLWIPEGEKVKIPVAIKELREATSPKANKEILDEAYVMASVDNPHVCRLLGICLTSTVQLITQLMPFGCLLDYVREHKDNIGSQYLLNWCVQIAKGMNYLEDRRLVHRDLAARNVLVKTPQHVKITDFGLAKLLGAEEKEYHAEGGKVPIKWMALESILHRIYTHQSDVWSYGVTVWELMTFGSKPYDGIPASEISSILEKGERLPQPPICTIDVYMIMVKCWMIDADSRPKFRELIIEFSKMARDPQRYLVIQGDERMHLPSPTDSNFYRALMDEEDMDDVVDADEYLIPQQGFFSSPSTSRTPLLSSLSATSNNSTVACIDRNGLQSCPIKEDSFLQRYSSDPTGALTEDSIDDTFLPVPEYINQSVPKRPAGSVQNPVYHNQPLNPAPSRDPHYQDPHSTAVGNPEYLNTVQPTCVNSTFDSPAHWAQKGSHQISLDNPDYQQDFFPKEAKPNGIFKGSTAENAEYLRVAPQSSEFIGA
Outline: as §1

EGFR Del19/C797S = EGFR Del19/C797S (Homo sapiens, UniProt P00533, C797S/DEL746-750); experiment: Biochemical EGFR kinase inhibition assay (Lance Ultra TR-FRET), double mutant del19/C797S
Outline: as §1

[1] = IC50 Del19/T790M/C797S (nM), 100 μM ATP
[2] = Km ATP, read-out: IC50 Del19/T790M/C797S (nM), Km ATP
[3] = IC50 L858R/C797S (nM), 100 μM ATP
[4] = Km ATP, read-out: IC50 L858R/C797S (nM), Km ATP
[5] = IC50 L858R/T790M/C797S (nM), 100 μM ATP
[6] = Km ATP, read-out: IC50 L858R/T790M/C797S (nM), Km ATP
[7] = Km ATP, read-out: IC50 WT (nM), Km ATP
[8] = IC50 Del19/C797S (nM), 100 μM ATP
[9] = Km ATP, read-out: IC50 Del19/C797S (nM), Km ATP
[10] = ATP at Km, read-out: IC50 Del19/T790M/C797S (nM), Km ATP
[11] = ATP at Km, read-out: IC50 L858R/C797S (nM), Km ATP
[12] = ATP at Km, read-out: IC50 L858R/T790M/C797S (nM), Km ATP
[13] = ATP at Km, read-out: IC50 WT (nM), Km ATP
[14] = ATP at Km, read-out: IC50 Del19/C797S (nM), Km ATP
[15] = Km ATP, read-out: IC50 Del19/T790M/C797S (nM) Km ATP
[16] = Km ATP, read-out: IC50 L858R/C797S (nM) Km ATP
[17] = Km ATP, read-out: IC50 WT (nM) Km ATP
[18] = Km ATP, read-out: IC50 Del19/C797S (nM) Km ATP

Chain of EGFR Del19/T790M/C797S (P00533 with tags, fused parts or gaps DEL746-750/T790M/C797S): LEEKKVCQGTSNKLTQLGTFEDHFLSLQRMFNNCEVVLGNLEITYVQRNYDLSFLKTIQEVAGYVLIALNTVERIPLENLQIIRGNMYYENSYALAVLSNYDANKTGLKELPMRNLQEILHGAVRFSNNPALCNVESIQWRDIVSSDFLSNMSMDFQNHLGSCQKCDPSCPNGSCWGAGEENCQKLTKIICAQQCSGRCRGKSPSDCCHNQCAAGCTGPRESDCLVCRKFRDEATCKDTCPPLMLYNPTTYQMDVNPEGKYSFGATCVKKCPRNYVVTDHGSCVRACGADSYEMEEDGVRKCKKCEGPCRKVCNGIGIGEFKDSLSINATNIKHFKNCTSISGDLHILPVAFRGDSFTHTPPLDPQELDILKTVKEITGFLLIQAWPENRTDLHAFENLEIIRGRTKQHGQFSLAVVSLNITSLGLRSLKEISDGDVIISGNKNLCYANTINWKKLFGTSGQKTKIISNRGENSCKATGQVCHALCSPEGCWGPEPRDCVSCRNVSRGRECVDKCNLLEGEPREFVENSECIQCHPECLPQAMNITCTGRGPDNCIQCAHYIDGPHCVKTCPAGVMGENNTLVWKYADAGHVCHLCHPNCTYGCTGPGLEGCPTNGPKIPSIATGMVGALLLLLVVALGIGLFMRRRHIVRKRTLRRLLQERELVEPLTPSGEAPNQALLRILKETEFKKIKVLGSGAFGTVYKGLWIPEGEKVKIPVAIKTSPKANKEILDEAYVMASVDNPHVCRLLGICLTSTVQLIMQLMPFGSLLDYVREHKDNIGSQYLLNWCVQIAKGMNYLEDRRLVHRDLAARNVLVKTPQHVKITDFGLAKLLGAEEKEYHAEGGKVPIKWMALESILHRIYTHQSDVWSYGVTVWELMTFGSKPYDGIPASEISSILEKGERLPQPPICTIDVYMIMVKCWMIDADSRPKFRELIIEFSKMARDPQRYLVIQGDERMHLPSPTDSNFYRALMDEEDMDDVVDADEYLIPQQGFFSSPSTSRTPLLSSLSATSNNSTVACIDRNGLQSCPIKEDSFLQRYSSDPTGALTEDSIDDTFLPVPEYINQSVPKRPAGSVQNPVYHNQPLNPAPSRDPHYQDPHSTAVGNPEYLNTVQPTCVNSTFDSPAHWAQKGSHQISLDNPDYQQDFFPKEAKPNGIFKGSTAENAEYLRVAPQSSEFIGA

| SMILES | IC50 (EGFR Del19/T790M/C797S; [1]) [nM] | IC50 (EGFR Del19/T790M/C797S; [2]) [nM] | IC50 (EGFR L858R/C797S; [3]) [nM] | IC50 (EGFR L858R/C797S; [4]) [nM] | IC50 (EGFR L858R/T790M/C797S; [5]) [nM] | IC50 (EGFR L858R/T790M/C797S; [6]) [nM] | IC50 (EGFR wildtype (WT); IC50 WT (nM), 100 μM ATP) [nM] | IC50 (EGFR wildtype (WT); [7]) [nM] | IC50 (EGFR Del19/C797S; [8]) [nM] | IC50 (EGFR Del19/C797S; [9]) [nM] | IC50 (EGFR Del19/T790M/C797S; [10]) [nM] | IC50 (EGFR L858R/C797S; [11]) [nM] | IC50 (EGFR L858R/T790M/C797S; [12]) [nM] | IC50 (EGFR wildtype (WT); [13]) [nM] | IC50 (EGFR Del19/C797S; [14]) [nM] | IC50 (EGFR Del19/T790M/C797S; [15]) [nM] | IC50 (EGFR L858R/C797S; [16]) [nM] | IC50 (EGFR wildtype (WT); [17]) [nM] | IC50 (EGFR Del19/C797S; [18]) [nM] | IC50 (EGFR L858R/T790M/C797S; Km ATP, read-out: IC50 L858R/T790M/C797S (nM) Km ATP) [nM] |
| --- | --- | --- | --- | --- | --- | --- | --- | --- | --- | --- | --- | --- | --- | --- | --- | --- | --- | --- | --- | --- |
| COC1(O)CCN(c2cc(Nc3ccnc(-c4cnn(S(=O)(=O)C5CC5)c4)n3)ncc2C#Cc2ncc(CN3CCOCC3)cn2)CC1 [Example 365, 1-(2-((2-(1-(Cyclopropylsulfonyl)-1H-pyrazol-4-yl)pyrimidin-4-yl)amino)-5-((5-(morpholinomethyl)pyrimidin-2-yl)ethynyl)pyridin-4-yl)-4-methoxypiperidin-4-ol] | 0.7 | 0.4 | 46.6 | 3.9 | 1.3 | 0.1 | > 10000 | 10.5 | 3.5 | 3.3 |  |  |  |  |  |  |  |  |  |  |
| CC1(CO)CCN(c2cc(Nc3ccnc(-c4cnn(S(=O)(=O)C5CC5)c4)n3)ncc2C#Cc2cnn(C3COC3)c2)CC1 [Example 245, (1-(2-((2-(1-(Cyclopropylsulfonyl)-1H-pyrazol-4-yl)pyrimidin-4-yl)amino)-5-((1-(oxetan-3-yl)-1H-pyrazol-4-yl)ethynyl)pyridin-4-yl)-4-methylpiperidin-4-yl)methanol] | 1.4 |  | 2.8 |  | 1.3 |  | 474 |  | 0.5 |  | 0.8 | 1.1 | 0.5 | 6.7 | 0.6 |  |  |  |  |  |
| CC1(O)CCN(c2cc(Nc3ccnc(-c4cnn(S(=O)(=O)C5CC5)c4)n3)ncc2C#CC2(F)CCOC2)CC1 (stereo not drawn) [Example 435, 1-(2-((2-(1-(Cyclopropylsulfonyl)-1H-pyrazol-4-yl)pyrimidin-4-yl)amino)-5-((3-fluorotetrahydrofuran-3-yl)ethynyl)pyridin-4-yl)-4-methylpiperidin-4-ol] | 0.2 | 0.2 | 66.6 | 2 | 0.3 | 0.1 | 8720 | 14.2 | 2.9 | 1.3 |  |  |  |  |  |  |  |  |  |  |
| O=S(=O)(C1CC1)n1cc(-c2nccc(Nc3cc(N4CCC(CO)CC4)c(C#Cc4cnn(CCF)c4)cn3)n2)cn1 [Example 30, (1-(2-((2-(1-(Cyclopropylsulfonyl)-1H-pyrazol-4-yl)pyrimidin-4-yl)amino)-5-((1-(2-fluoroethyl)-1H-pyrazol-4-yl)ethynyl)pyridin-4-yl)piperidin-4-yl)methanol] | 1.3 |  | 22.3 |  | 1.4 |  | > 10000 |  | 2.8 |  |  |  |  |  |  | 0.9 | 4.4 | 8.2 | 3 |  |
| CC(C)Nc1cc(Nc2ccnc(-c3cnn(S(=O)(=O)C4CC4)c3)n2)ncc1C#CCN1CCOCC1 [Example 202, N^2-(2-(1-(Cyclopropylsulfonyl)-1H-pyrazol-4-yl)pyrimidin-4-yl)-N^4-isopropyl-5-(3-morpholinoprop-1-yn-1-yl)pyridine-2,4-diamine] |  |  |  |  |  |  |  |  |  |  | 2.2 | 92.7 | 1.6 | 312 | 43.4 |  |  |  |  |  |
| O=S(=O)(C1CC1)n1cc(-c2nccc(Nc3cc(NC4CCC(O)CC4)c(C#CC4CCOC4)cn3)n2)cn1 (stereo not drawn) [Example 198, (1s,4s)-4-((2-((2-(1-(Cyclopropylsulfonyl)-1H-pyrazol-4-yl)pyrimidin-4-yl)amino)-5-((tetrahydrofuran-3-yl)ethynyl)pyridin-4-yl)amino)cyclohexan-1-ol] | 0.5 |  | 50.8 |  | 0.6 |  | 5980 |  | 3.6 |  | 0.4 | 2.5 | 0.2 | 25.1 | 2.1 |  |  |  |  |  |
| Cn1cc(C#Cc2cnc(Nc3ccnc(-c4cnn(S(=O)(=O)C5CC5)c4)n3)cc2N[C@@H]2CCC[C@H](O)C2)cn1 [Example 45, (1 S,3R)-3-((2-((2-(1-(Cyclopropylsulfonyl)-1H-pyrazol-4-yl)pyrimidin-4-yl)amino)-5-((1-methyl-1H-pyrazol-4-yl)ethynyl)pyridin-4-yl)amino)cyclohexan-1-ol] | 0.9 |  | 46.2 |  | 2.3 |  | > 10000 |  | 7.3 |  |  |  |  |  |  |  |  |  |  |  |
| CN(C)C[C@H]1CC[C@H](COc2cc(Nc3ccnc(-c4cnn(S(=O)(=O)C5CC5)c4)n3)ncc2C#Cc2cnn(CCF)c2)CC1 [Example 61, 2-(1-(Cyclopropylsulfonyl)-1H-pyrazol-4-yl)-N-(4-(((1r,4r)-4-((dimethylamino)methyl)cyclohexyl)methoxy)-5-((1-(2-fluoroethyl)-1H-pyrazol-4-yl)ethynyl)pyridin-2-yl)pyrimidin-4-amine] |  |  |  |  |  |  |  |  |  |  |  |  |  |  |  | 0.5 | 3.1 | 4.2 | 0.5 | 0.1 |
| CC1(CO)CCN(c2cc(Nc3ccnc(-c4cnn(S(=O)(=O)C5CC5)c4)n3)ncc2C#Cc2cccnc2)CC1 [Example 260, (1-(2-((2-(1-(Cyclopropylsulfonyl)-1H-pyrazol-4-yl)pyrimidin-4-yl)amino)-5-(pyridin-3-ylethynyl)pyridin-4-yl)-4-methylpiperidin-4-yl)methanol] | 0.4 |  | 10.8 |  | 0.3 |  | 832 |  | 0.5 |  | 0.5 | 1 | 0.2 | 2.1 | 0.3 |  |  |  |  |  |
| CC(C)(O)[C@H]1CC[C@@H](Nc2cc(Nc3ccnc(-c4cnn(S(=O)(=O)C5CC5)c4)n3)ncc2C#Cc2ccc(CN3CCOCC3)cc2)CC1 [Example 162, 2-((1s,4s)-4-((2-((2-(1-(Cyclopropylsulfonyl)-1H-pyrazol-4-yl)pyrimidin-4-yl)amino)-5-((4-(morpholinomethyl)phenyl)ethynyl)pyridin-4-yl)amino)cyclohexyl)propan-2-ol] | 22.9 |  | 619 |  | 26.3 |  | > 10000 |  | 58.4 |  | 27.6 | 39.9 | 12.2 | 540 | 44.8 |  |  |  |  |  |
| CC1(O)CCC(Nc2cc(Nc3ccnc(-c4cnn(S(=O)(=O)C5CC5)c4)n3)ncc2C#Cc2cnn(C3CC3(F)F)c2)CC1 (stereo not drawn) [Example 326, (1s,4s)-4-((2-((2-(1-(Cyclopropylsulfonyl)-1H-pyrazol-4-yl)pyrimidin-4-yl)amino)-5-((1-(2,2-difluorocyclopropyl)-1H-pyrazol-4-yl)ethynyl)pyridin-4-yl)amino)-1-methylcyclohexan-1-ol] | 1.9 |  | 145 |  | 2.1 |  | > 10000 |  | 19.2 |  | 1.9 | 5.3 | 0.6 | 17.6 | 10.3 |  |  |  |  |  |
| CC1(CO)CCN(c2cc(Nc3ccnc(-c4cnn(S(=O)(=O)C5CC5)c4)n3)ncc2C#CC2CCN(C(=O)C(F)(F)F)C2)CC1 (stereo not drawn) [Example 415, 1-(3-((6-((2-(1-(Cyclopropylsulfonyl)-1H-pyrazol-4-yl)pyrimidin-4-yl)amino)-4-(4-(hydroxymethyl)-4-methylpiperidin-1-yl)pyridin-3-yl)ethynyl)pyrrolidin-1-yl)-2,2,2-trifluoroethan-1-one] | 0.2 |  | 21.6 |  | 1.7 |  | 5060 |  | 1.2 |  |  |  |  |  |  |  |  |  |  |  |
